Experimental data reported in US9481885B2, “Methods and compositions related to miR-21 and miR-29a, exosome inhibition, and cancer metastasis” (Ohio State Innovation Foundation, priority 2011, dated 2016).

Molecular target: T1, human TLR8 (Homo sapiens, UniProt Q9NR97)
T1 construct: host or cells: HEK-Blue TLR8 293 (TLR8-HEK-293)
T1 sequence (Q9NR97 27-1041): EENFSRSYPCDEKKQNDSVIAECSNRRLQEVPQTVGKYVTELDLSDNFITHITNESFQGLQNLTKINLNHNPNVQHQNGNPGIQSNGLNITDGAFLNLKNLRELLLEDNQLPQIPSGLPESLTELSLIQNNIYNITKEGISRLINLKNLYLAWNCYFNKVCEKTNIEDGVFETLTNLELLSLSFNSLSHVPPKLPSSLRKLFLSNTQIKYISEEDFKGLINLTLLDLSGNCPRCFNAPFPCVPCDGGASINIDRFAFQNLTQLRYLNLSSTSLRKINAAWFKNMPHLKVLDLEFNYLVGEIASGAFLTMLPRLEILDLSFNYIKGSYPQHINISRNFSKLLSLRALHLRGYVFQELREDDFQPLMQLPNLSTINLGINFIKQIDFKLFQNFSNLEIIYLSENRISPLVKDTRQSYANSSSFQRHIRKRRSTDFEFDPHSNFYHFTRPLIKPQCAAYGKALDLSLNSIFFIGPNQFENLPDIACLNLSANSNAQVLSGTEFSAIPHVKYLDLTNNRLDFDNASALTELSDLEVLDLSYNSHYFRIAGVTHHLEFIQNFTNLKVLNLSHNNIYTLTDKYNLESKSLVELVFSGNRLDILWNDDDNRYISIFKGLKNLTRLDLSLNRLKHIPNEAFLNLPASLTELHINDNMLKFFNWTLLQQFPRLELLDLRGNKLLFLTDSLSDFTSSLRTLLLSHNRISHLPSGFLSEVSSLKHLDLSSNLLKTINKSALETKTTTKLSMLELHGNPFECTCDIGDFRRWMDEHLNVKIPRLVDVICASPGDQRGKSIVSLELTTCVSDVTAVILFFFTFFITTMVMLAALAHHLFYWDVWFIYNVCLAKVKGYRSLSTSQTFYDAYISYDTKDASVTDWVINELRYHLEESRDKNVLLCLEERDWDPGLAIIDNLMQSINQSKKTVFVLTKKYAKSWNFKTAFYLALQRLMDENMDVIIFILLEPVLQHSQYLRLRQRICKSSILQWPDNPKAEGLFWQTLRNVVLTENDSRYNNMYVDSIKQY
Assay: NF-κB reporter assay (QUANTI-Blue) in TLR8-HEK-293 cells
Type: cell-based
Settings: Dotap formulations of miRNA
Description: To investigate whether miRNA-induced activation of TLRs also occurs in human cells, an NF-κB reporter assay was performed in HEK-293 cells. NF-κB, a transcription factor modulating the expression of several cytokine genes, is activated by several TLRs, including the only ssRNA-binding human TLRs, TLR7 and TLR8. Therefore, we treated HEK-293 cells expressing human TLR7 or TLR8 (hereafter, TLR7- and TLR8-HEK-293 cells, respectively) with Dotap alone or with Dotap formulations of miR-16, -21, -29a, or -147 and performed an NF-κB reporter assay. As positive controls Gardiquimod and ssRNA40 were used, specific agonists of TLR7 and TLR8, respectively. […] To confirm this conclusion, transfected were TLR8-HEK-293 cells with a plasmid encoding a dominant negative form of TLR8 (TLR8DN) and treated these cells with the miRNAs of interest. In TLR8DN cells, the activation of NF-κB by miR-21 and miR-29a was abolished (FIG. 3F). […] NF-κB activity was assessed by QUANTI-Blue Assay (Invivogen). […] Levels of SEAP can be easily determined with QUANTI-Blue, a detection medium that turns purple/blue in the presence of alkaline phosphatase. […] The plate was then incubated at 37° C. for 1-3 h and SEAP levels were determined by reading the plate with a spectrophotometer at 620-655 nm (SpectraMax, Molecular Devices).

miR-147: synthetic mature miRNA (SEQ ID NO: 3), sequence similar to RNA33, Dotap formulation (GUGUGUGGAAAUGCUUCUGC; DOTAP formulation, further chemistry not given here)
NF-κB activation: activated
